Measurements taken from the supplement of paper PMC10307832.

Key:
Experiment in all cases: relative viability (nuclei count vs DMSO), 5 days (fraction); higher = more cells survive
Shikonin + Pemetrexed = compound: CC(C)=CC[C@@H](O)C1=CC(=O)c2c(O)ccc(O)c2C1=O [Shikonin] + Nc1nc2[nH]cc(CCc3ccc(C(=O)N[C@@H](CCC(=O)O)C(=O)O)cc3)c2c(=O)[nH]1 [Pemetrexed] (partner 0.2 µM)
Outline: (§1)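 Lung cancer cell lines were pin-tool dosed in 1536-well plates on the day after seeding, with either a lone drug or a fixed anchor-drug dose plus five library-drug doses (not always all listed) in √10 steps. Nuclei were counted on 4× images after 5 days. Relative viability is the ratio of treated-well to vehicle-well nuclei counts, with each value a median of duplicate plates.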

[1] = compound: CC(C)N(CCCNC(=O)Nc1ccc(C(C)(C)C)cc1)C[C@H]1O[C@@H](n2ccc3c(N)ncnc32)[C@H](O)[C@@H]1O + CS(=O)(=O)CCNCc1ccc(-c2ccc3ncnc(Nc4ccc(OCc5cccc(F)c5)c(Cl)c4)c3c2)o1 [Lapatinib] (partner 2 µM)
Outline: as §1

Shikonin + Linsitinib = compound: CC(C)=CC[C@@H](O)C1=CC(=O)c2c(O)ccc(O)c2C1=O [Shikonin] + C[C@]1(O)C[C@@H](c2nc(-c3ccc4ccc(-c5ccccc5)nc4c3)c3c(N)nccn32)C1 [Linsitinib] (partner 1 µM)
Outline: as §1

Shikonin + Dasatinib = compound: CC(C)=CC[C@@H](O)C1=CC(=O)c2c(O)ccc(O)c2C1=O [Shikonin] + Cc1nc(Nc2ncc(C(=O)Nc3c(C)cccc3Cl)s2)cc(N2CCN(CCO)CC2)n1 [Dasatinib] (partner 0.075 µM)
Outline: as §1

Cell Line | relative viability (Shikonin + Pemetrexed; first compound 0.01 µM) | relative viability (Shikonin + Pemetrexed; first compound 0.1 µM) | relative viability (Shikonin + Pemetrexed; first compound 0.3162 µM) | relative viability (Shikonin + Pemetrexed; first compound 1 µM) | relative viability ([1]; first compound 0.08 µM) | relative viability ([1]; first compound 0.253 µM) | relative viability ([1]; first compound 0.8 µM) | relative viability ([1]; first compound 2.53 µM) | relative viability ([1]; first compound 8 µM) | relative viability (Shikonin + Linsitinib; first compound 0.01 µM) | relative viability (Shikonin + Linsitinib; first compound 0.1 µM) | relative viability (Shikonin + Linsitinib; first compound 0.3162 µM) | relative viability (Shikonin + Linsitinib; first compound 1 µM) | relative viability (Shikonin + Dasatinib; first compound 0.01 µM) | relative viability (Shikonin + Dasatinib; first compound 0.1 µM) | relative viability (Shikonin + Dasatinib; first compound 0.3162 µM) | relative viability (Shikonin + Dasatinib; first compound 1 µM)
NCI-H596 | 0.502 | 0.536 | 0.414 | 0.475 | 1.17 | 0.946 | 0.971 | 1.08 | 1.06 | 1.04 | 0.887 | 1.16 | 1.06 | 0.585 | 0.59 | 0.566 | 0.641
NCI-H1666 | 0.869 | 0.854 | 0.916 | 0.861 | 0.618 | 0.613 | 0.427 | 0.568 | 0.486 | 0.835 | 0.802 | 0.807 | 0.865 | 0.809 | 0.873 | 0.882 | 0.857
NCI-H1651 | 0.631 | 0.748 | 0.606 | 0.652 | 0.724 | 0.727 | 0.586 | 0.779 | 0.93 | 0.974 | 1.12 | 0.996 | 1.01 | 0.385 | 0.391 | 0.37 | 0.438
NCI-H1755 | 0.453 | 0.409 | 0.477 | 0.417 | 1.02 | 1.06 | 0.841 | 0.979 | 0.944 | 1.04 | 1.04 | 1.05 | 1.07 | 0.484 | 0.46 | 0.499 | 0.475
NCI-H838 | 0.234 | 0.24 | 0.243 | 0.258 | 0.869 | 0.521 | 0.953 | 0.938 | 0.916 | 1.05 | 1.08 | 1.07 | 1.03 | 0.314 | 0.284 | 0.262 | 0.333
HARA | 0.265 | 0.306 | 0.255 | 0.24 | 0.637 | 0.679 | 0.429 | 0.498 | 0.568 | 1.1 | 0.925 | 1.01 | 0.925 | 0.239 | 0.281 | 0.299 | 0.28
NCI-H650 | 0.87 | 0.987 | 1.13 | 0.857 | 0.921 | 0.889 | 0.775 | 0.791 | 0.871 | 0.975 |  | 0.843 | 0.845 | 0.462 | 0.449 | 0.414 | 0.464
NCI-H1563 | 0.769 | 0.846 | 0.897 | 0.845 | 0.862 | 0.836 | 0.742 | 1.05 | 0.915 | 1.27 | 1.29 | 1.23 | 0.892 | 0.379 | 0.435 | 0.467 | 0.458
NCI-H2347 | 0.471 | 0.479 | 0.402 | 0.44 | 0.965 | 0.999 | 0.654 | 0.968 | 0.934 | 0.976 | 0.987 | 1.07 | 0.977 | 0.268 | 0.351 | 0.296 | 0.2
LCLC-97TM1 | 0.123 | 0.162 | 0.155 | 0.16 | 0.906 |  | 1.41 | 0.517 | 1.11 | 0.175 | 0.176 | 0.173 | 0.162 | 0.877 | 0.848 | 1.09 | 0.815
EPLC-272H | 0.264 | 0.314 | 0.334 | 0.297 | 1.05 | 0.81 | 0.823 | 0.981 | 1.11 | 1.18 | 1.32 | 1.2 | 1.17 | 0.34 | 0.322 | 0.315 | 0.398
NCI-H1915 | 0.442 | 0.684 | 0.517 | 0.449 | 1.02 | 0.981 | 0.783 | 0.925 | 0.87 | 1.05 | 1.16 | 1.15 | 1.09 | 0.316 | 0.35 | 0.3 | 0.341
NCI-H3122 | 0.215 | 0.219 | 0.209 | 0.209 | 1.09 | 0.938 | 1.02 | 1.02 | 1.03 | 1.03 | 1.07 | 1.09 | 1.03 | 0.882 | 0.761 | 0.969 | 0.861
NCI-H1395 | 0.84 | 0.944 | 0.85 | 1.01 | 1.15 | 1.02 |  | 0.94 | 0.904 | 1.08 | 1.4 | 0.878 | 1.05 | 0.376 | 0.403 | 0.45 | 0.449
NCI-H358 | 0.159 | 0.182 | 0.172 | 0.154 | 0.433 | 0.443 | 0.427 | 0.357 | 0.393 | 0.916 | 0.688 | 0.857 | 0.511 | 0.145 | 0.189 | 0.148 | 0.157
PC-3 [JPC-3] | 1.21 | 1.44 | 1.05 | 1.63 | 0.433 | 0.478 | 0.419 | 0.467 | 0.462 | 0.923 | 1.07 | 0.951 | 1.03 | 1.11 | 0.968 | 1.1 | 0.958
CAL-12T | 1.28 | 1.41 | 1.09 | 1.24 | 0.61 | 0.477 | 0.572 | 0.625 | 0.652 | 0.754 | 0.815 | 0.715 | 0.767 | 0.557 | 0.333 | 0.356 | 0.302
